Test results reported in patent US20120083472A1, “PHARMACEUTICAL COMPOSITION FOR PROMOTING THE HEALING OF WOUNDS AND CONTAINING LYSOPHOSPHATIDIC ACID AND AN ADENYLYL CYCLASE INHIBITOR AS ACTIVE INGREDIENTS” (SNU R&DB FOUNDATION, priority 2009, published 2012).

Legend:
[1] = test system: young and senescent fibroblasts, HUVEC, skin keratinocytes; assay: DNA synthesis ([3H]-thymidine incorporation); format: cell-based, human
Experimental: Sub-cultured young (PD 25) and senescent (PD 73) cells (A), skin fibroblasts from young and elderly donors (B), HUVEC (C) and skin keratinocytes (D) were serum-starved for 2 days and treated with 1 mM of dibutyryl-cAMP (dbcAMP), or 300 […]μM of ACI (SQ22536) for 2 hrs. Cells were then treated with 30 μM of LPA in the presence of 0.5 μCi/ml of [^3H]-radioactive isotope. The radioactivity incorporated into the DNA was counted and fold increase of radioactive isotope incorporation was calculated and plotted. The results shown represent the means±standard deviation of a representative experiment. Human umbilical vein endothelial cells (HUVEC) were isolated from endothelial cells of umbilical cords as described by Whang et al (Whang et al., 2005). Foreskin human fibroblasts and keratinocytes were isolated from newborn foreskins as described by Boyce and Ham (Boyce and Ham, 1983). Patient consents were obtained from all donors and the use of tissue samples was approved by the ethics committee of the Seoul National University. The obtained and isolated fibroblasts and HUVEC were maintained in DMEM containing 10% fetal bovine serum (FBS) and antibiotics, and keratinotyes were in keratinocyte growth medium (KGM) containing antibiotics. Cells from the early stage of culture were cultured to obtain aged cells, which were used in experiments (population doubling -PD- of less than 25 vs PD 65-70 in fibroblasts, PD less than 5 vs PD 10-12 in case of HUVEC). Senescent cells were characterized by morphological changes, enhanced […]β-galactosidase activity and a reduced rate of proliferation (Yeo et al., 2000). Cells were grown for 2 days to 60-70% sub-confluency in the culture medium after treatment with LPA or ACI, and then serum-starved to quiescence by incubating them with either serum free DMEM containing 0.1% BSA (fibroblasts or HUVEC) or KBM (keratinocytes) for 2 days. […] Radioactivity in the neutralized lysates was counted in a liquid scintillation cocktail. The measured radioactivity as such was compared to that of control to find the synthesis degree of […].

[2] = test system: young and senescent fibroblasts (HDFs); assay: In vitro wound healing assay (cell migration into acellular area); format: cell-based, human; details: serum-starved; for migration of senescent cells: LPA 30 μM, ACI 300 μM, 72 hrs (FIGS. 6B, 6D); for migration of young cells: LPA 30 μM or ACI 300 μM, up to 72 hrs (FIGS. 6A, 6C)
Experimental: Sub-cultured young (A, C) and senescent cells (B, D) were serum-starved for 2 days and treated with ACI or dbcAMP (1 mM) for 2 hr at 37° C. An area was denuded by a yellow tip and the cells were then treated with LPA (30 μM) and incubated at 37° C. Photographs were taken at 6 hrs, 12 hrs, 18 hrs, 24 hrs, 30 hrs, 36 hrs, 42 hrs, 60 hrs, and 72 hrs, and the number of cells migrated into the acellular area was counted and the average values were plotted in A and B. The data at 72 hrs were replotted in a bar graph to show the significant changes induced by treating cells with either LPA or ACI, or both (C and D). The results shown represent the means±standard deviation of a representative experiment. Cell migration from each group (p<0.001) was compared to the control value the migration was read as having a significance.
LPA-induced cell migration was assessed by the ability of the cells to move into an acellular area (Shiraha et al., 2000). Cells were plated on a 10-cm plastic dish and grown to 70-80% confluence in the culture media with 10% FBS. After a 2-day quiescence in serum free media with 0.1% BSA, cells were pretreated with vehicle, ACI (300 μM), or dbcAMP (1 mM) for 2 hrs at 37° C. An area was denuded by a tip and the cells were then incubated at 37° C. without or with LPA (30 μM). Photographs were taken at 6 hrs, 12 hrs, 18 hrs, 24 hrs, 30 hrs, 36 hrs, 42 hrs, 60 hrs, and 72 hrs, and the number of cells migrating to the acellular area was counted.

Compound | basal and LPA-stimulated DNA synthesis in senescent cells ([1]; senescent cells, 1 mM dbcAMP or 300 μM ACI 2 hrs, then 30 μM LPA (FIG. 4A)) | thymidine incorporation, basal and LPA-stimulation conditions ([1]; young and aged fibroblasts, HUVEC and keratinocytes, 300 μM ACI (FIG. 4)) | migration of senescent cells [2] | migration of young cells [2]
Nc1ncnc2c1ncn2C1CCCO1 (stereo not drawn) [ACI, 9-(tetrahydro-2′-furyl)adenine] | increased | enhanced the thymidine incorporation | increase in cell migration | unaltered
lysophosphatidic acid [LPA] |  |  | increased senescent cell migration at 72 hrs significantly | migration of cells is increased
